Results reported in patent US20050079529A1, “Very large scale immobilized polymer synthesis” (Affymetrix, INC., priority 1989, published 2005).
Square brackets hold non-standard residues; d marks the D form. Ends that are not written are not given here.

Experiments:
Herz antibody = assay: Array of sixteen amino acid sequences, relative binding to Herz antibody by fluorescence; set-up: species or system mouse; details: FIG. 17
Source text: Using techniques similar to those set forth above, an array of 16 different amino acid sequences (replicated four times) was synthesized on each of two glass substrates. The sequences were synthesized by attaching the sequence NVOC-GFL across the entire surface of the slides. Using a series of masks, two layers of amino acids were then selectively applied to the substrate. Each region had dimensions of 0.25 cm×0.0625 cm. The first slide contained amino acid sequences containing only L amino acids while the second slide contained selected D amino acids. FIGS. 15A and 15B illustrate a map of the various regions on the first and second slides, respectively. The patterns shown in FIGS. 15A and 15B were duplicated four times on each slide. The slides were then exposed to the Herz antibody and fluorescein-labeled goat anti-mouse.
FIG. 16 is a fluorescence plot of the first slide, which contained only L amino acids. Light shading indicates strong binding (149,000 counts or more) while black indicates little or no binding of the Herz antibody (20,000 counts or less). The bottom right-hand portion of the slide appears “cut off” because the slide was broken during processing. […]
FIG. 17 is a fluorescence plot of the second slide. […]
Table 2 lists the various sequences tested in order of relative fluorescence, which provides information regarding relative binding affinity. […]

[1] = system: anti-dynorphin B monoclonal antibody; assay: Dynorphin B deletion peptide array, relative binding of anti-dynorphin B monoclonal antibody by fluorescence intensity
Experimental: The binding epitope on dynorphin B for the anti-dynorphin B antibody described above was determined by deleting various amino acids and combinations of amino acids from the overall sequence of dynorphin B. The peptides containing these various deletions were prepared on a substrate by the general protection-deprotection methods described above. Then the substrate was exposed to the anti-dynorphin B monoclonal antibody and a fluorescence image was produced as shown in FIG. 33.
From the intensity distribution contained in this plot, it was possible to determine the relative binding affinity to various of the peptides.

[2] = system: anti-dynorphin B murine monoclonal antibody; assay: 4×10 peptide array related to dynorphin B screened with anti-dynorphin B antibody and labeled goat anti-mouse antibody; assay type: binding; details: FIG. 30
Source text: An array of peptides synthesized using the general protection-deprotection technology outlined above. Referring to FIG. 30, the following peptides were synthesized: row 1=RXFKVVT; row 2=RQXFKVVT; row 3=RQXKVVT; and row 4=RXKVVT. In each row, “X” represents a group of four amino acids, which were simultaneously added to the immobilized peptide. The particular group of amino acids used as “X” on a given block are identified by column number as follows: column 1 [G,A,R,K in a ratio 1:1:1:1], column 2 [null]; column 3 [C,M,S,T in the ratio 1:1:1:5]; column 4 [null]; column 5 [F,Y,W,H in the ratio 1:1:1:1]; column 6 [null]; column 7 [D,E,N,Q in the ratio 1:1:1:1]; column 8 [null]; column 9 [V,L,I,P in the ratio 2:1:4:1]; and column 10 [null].
After these peptides were synthesized, they were screened with an anti-dynorphin B murine monoclonal antibody and then exposed to a fluorescently labeled goat anti-mouse antibody. […] Other strongly labeled regions, include column 7, row 1 and column 5, row 3, each of which contains some peptides having the above binding epitope. It should be noted that the varying ratios of some of the amino acids within a given group were necessary to obtain roughly equal binding efficiencies among the four amino acids.

Substance | binding of Herz antibody, second slide (selected D amino acids) (Herz antibody) | RELATIVE INTENSITY ([1]; mean ± spread over N synthesis sites) | RELATIVE INTENSITY, value in parentheses (ADJUSTED) ([1]; second value in parentheses) | fluorescence labeling of array region [2]
YpGFL: SEQ ID NO:24; lower case letters represent D-amino acids (Y[dP]GFL) | Significant binding |  |  | 
RQFKVVT |  | 93.6 ± 10.0 | (96.2 ± 7.1) | brightest region
